Laboratory results taken from PubChem BioAssay AID2060612 (Molecular Pharmacology Branch, DTP, NCI, 2025).

System: 565232-114-T-J1-PDC complex spheroid viability
Assay: Anticancer human tumor 565232-114-T-J1-PDC patient-derived bladder carcinoma cell line growth inhibition [CLK]
Conditions: for IC50: curve of first compound; for viability, T/C: stronger effect = lower value
Description: A high-throughput screen of multi-cell type tumor spheroids was designed to identify active combinations of […] and targeted small molecules. Complex spheroids include a stromal component modeled by human endothelial cells (HUVEC) and fibroblasts modeled by human mesenchymal stem cells (MSCs). The concentration ranges selected for each drug and investigational agent were based upon clinically achievable concentrations if the clinical Cmax of the agent was known.
Compounds. The drugs and investigational agents: cirtuvivint (SM08502; NSC835563), CC-671 (NSC850746), vemurafenib (NSC761431), tapotoclax (NSC804041), sotorasib (NSC818433), adagrasib (NSC831453), MRTX-1133 (NSC836407), BAY2416964 (NSC825713), copanlisib (NSC816437), inavolisib (NSC800729), abemaciclib (NSC768073), osimertinib (NSC779217), entinostat (NSC756642), eltanexor (KPT-8602, NSC794443), venetoclax (NSC766270), ceralasertib (NSC777638), bortezomib (NSC756655), olaparib (NSC753686), talazoparib (NSC767125), alisertib (NSC759677), peposertib (NSC802822), gemcitabine (NSC613327), 5-fluorouracil (NSC19893), SN-38 (NSC673596), oxaliplatin (NSC266046), paclitaxel (NSC125973), and doxorubicin (NSC123127), were obtained from the National Cancer Institute (NCI) Developmental Therapeutics Program Chemical Repository. The FDA-approved anticancer drug set is available from the Developmental Therapeutics Program at https://dtp.cancer.gov/organization/dscb/obtaining/available plates.htm. […] The stock solutions were prepared in dimethyl sulfoxide (DMSO, Sigma-Aldrich, St. Louis, MO, cat. D2650), except for the platinum complexes which were prepared in saline (Quality Biological, Gaithersburg, MD, cat. 114-055-101), at 800-fold the tested concentration and stored at -70 degrees C prior to their use. All drugs and investigational agents were tested over a range starting from a high concentration at or near the clinical Cmax and decreasing in half-log increments. If the clinical Cmax for an agent had not been determined, the highest concentration tested was 10 microM.
Cell Culture. All cells were maintained in an incubator at 37 degrees C and 5% CO2 with 95% humidity. The PDC lines were cultured according to standard operating procedures established by the NCI PDMR. Briefly, all PDCs were thawed and cultured in Matrigel-coated flasks prepared with a working solution of 1X Ham's F-12 nutrient mix, without supplementation (Invitrogen, Waltham, MA, cat. 11765054), 100 U/mL penicillin-streptomycin (Invitrogen, cat. 15140122), and 2.5% Matrigel (Corning Inc., Corning, NY, cat. 354248) for the first three passages. The 947758-054-R-J2-PDC line was cultured in 6B/Colon 1A media, which includes advanced DMEM/F-12 (Thermo Fisher Scientific, cat. 12634028), 10 mM HEPES (Thermo Fisher Scientific, cat. 15630080), 1X GlutaMAX supplement (Thermo Fisher Scientific, cat. 35050061), 0.1 mg/mL primocin (InvivoGen, cat. ant-pm-2), 10% defined fetal bovine serum, heat inactivated (HyClone Laboratories Inc., cat. SH30070.03HI), 1.25 mM N-Acetyl-L-cysteine (Sigma-Aldrich, cat. A9165), 10 mM nicotinamide (Sigma-Aldrich, cat. N0636), 1X B-27 supplement (Thermo Fisher Scientific, cat. 17504044), 1X N-2 supplement (Thermo Fisher Scientific, cat. 17502048), and 10 microM Y-27632 dihydrochloride (Tocris Bioscience, cat. 1254). The 876862-298-R-J1-PDC was cultured in 6E media, which includes all 6B/Colon 1A media components plus 50% L-WRN conditioned media (ATCC, cat. CRL-3276), 50 ng/mL recombinant human EGF recombinant protein (hEGF; Thermo Fisher Scientific, cat. PHG0311), 10 ng/mL recombinant human fibroblast growth factor 10 (hGFG-10; PeproTech, cat. 100-26), 1 ng/mL recombinant human fibroblast growth factor 2 (hFGF-2; PeproTech, cat. 100-18B), and 1 µM prostaglandin E2 (PGE2; Tocris, cat. 2296). The 227483-062-R1-J1-PDC line was cultured in Panc media, containing all 6E components except hFGF-2, with the addition of 500 nM SB-431542 (Selleckchem, cat. S1067) and 10 nM gastrin (Tocris, cat. 3006). […]
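Note: spheroids exposed to compounds for 7 days before readout.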
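Throughout, for viability, T/C: 100% = DMSO vehicle wells with luminescence normalized to vehicle control.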

- IC50 (second compound 0.0316 µM): 5980 nM
- IC50 (second compound 0.1 µM): 455 nM
- IC50 (second compound 0.316 µM): < 31.6 nM
- IC50 (second compound 1 µM): < 31.6 nM
- IC50 (second compound 3.16 µM): < 31.6 nM
- IC50 (second compound 10 µM): < 31.6 nM
Structure (SMILES): CCCS(=O)(=O)Nc1ccc(F)c(C(=O)c2c[nH]c3ncc(-c4ccc(Cl)cc4)cc23)c1F + CNC(=O)c1ccc(Nc2nc(OC3CCCC3)c3c(-c4ccc5nc(C)oc5c4)c[nH]c3n2)c(OC)c1
- viability, T/C (second compound 0.0316 µM, first compound 0.0316 µM): 95.7%
- viability, T/C (second compound 0.0316 µM, first compound 0.1 µM): 75.2%
- viability, T/C (second compound 0.0316 µM, first compound 0.316 µM): 75.3%
- viability, T/C (second compound 0.0316 µM, first compound 1 µM): 96.2%
- viability, T/C (second compound 0.0316 µM, first compound 3.16 µM): 110%
- viability, T/C (second compound 0.0316 µM, first compound 10 µM): 17.2%
- viability, T/C (second compound 0.1 µM, first compound 0.0316 µM): 56.5%
- viability, T/C (second compound 0.1 µM, first compound 0.1 µM): 56.1%
- viability, T/C (second compound 0.1 µM, first compound 0.316 µM): 50.7%
- viability, T/C (second compound 0.1 µM, first compound 1 µM): 46.6%
- viability, T/C (second compound 0.1 µM, first compound 3.16 µM): 30.8%
- viability, T/C (second compound 0.1 µM, first compound 10 µM): 9.67%
- viability, T/C (second compound 0.316 µM, first compound 0.0316 µM): 36.1%
- viability, T/C (second compound 0.316 µM, first compound 0.1 µM): 35.9%
- viability, T/C (second compound 0.316 µM, first compound 0.316 µM): 32.9%
- viability, T/C (second compound 0.316 µM, first compound 1 µM): 32.5%
- viability, T/C (second compound 0.316 µM, first compound 3.16 µM): 26.3%
- viability, T/C (second compound 0.316 µM, first compound 10 µM): 6.44%
- viability, T/C (second compound 1 µM, first compound 0.0316 µM): 23.7%
- viability, T/C (second compound 1 µM, first compound 0.1 µM): 27.2%
- viability, T/C (second compound 1 µM, first compound 0.316 µM): 26.4%
- viability, T/C (second compound 1 µM, first compound 1 µM): 23.1%
- viability, T/C (second compound 1 µM, first compound 3.16 µM): 16.4%
- viability, T/C (second compound 1 µM, first compound 10 µM): 5.45%
- viability, T/C (second compound 3.16 µM, first compound 0.0316 µM): 19.1%
- viability, T/C (second compound 3.16 µM, first compound 0.1 µM): 20.5%
- viability, T/C (second compound 3.16 µM, first compound 0.316 µM): 18.4%
- viability, T/C (second compound 3.16 µM, first compound 1 µM): 18.8%
- viability, T/C (second compound 3.16 µM, first compound 3.16 µM): 18.9%
- viability, T/C (second compound 3.16 µM, first compound 10 µM): 4.02%
- viability, T/C (second compound 10 µM, first compound 0.0316 µM): 20.4%
- viability, T/C (second compound 10 µM, first compound 0.1 µM): 17.8%
- viability, T/C (second compound 10 µM, first compound 0.316 µM): 18.1%
- viability, T/C (second compound 10 µM, first compound 1 µM): 17.2%
- viability, T/C (second compound 10 µM, first compound 3.16 µM): 11.6%
- viability, T/C (second compound 10 µM, first compound 10 µM): 3.9%
